Test results as given in the NIST ThermoML archive (doi:10.1016/j.jct.2017.01.001).
Numbers after ± are expanded uncertainties.

Test: wn = mass fraction of the nth substance listed
Details: 100 kPa, Liquid, Pycnometric method

mass density (323.15 K, w1 = 0.5495) [kg/m3] | mass density (343.15 K, w1 = 0.5753) [kg/m3] | mass density (363.15 K, w1 = 0.5961) [kg/m3] | mass density (323.15 K, w1 = 0.323) [kg/m3] | mass density (343.15 K, w1 = 0.3141) [kg/m3] | mass density (363.15 K, w1 = 0.3071) [kg/m3] | SMILES
1583.2 ± 20 | 1594.3 ± 20 | 1626.5 ± 20 |  |  |  | O=C([O-])[O-].[K+].[K+] [potassium carbonate] + O
 |  |  | 1323.5 ± 20 | 1310.2 ± 20 | 1268.7 ± 20 | O=C([O-])[O-].[Na+].[Na+] [sodium carbonate] + O
